In ChEMBL document CHEMBL1201862, “PubChem BioAssay data set” (2004) one finds IC50 data, which are given here for two compounds.

The structures appear in SMILES notation. Active and inactive are the calls of the source. Cut-off read from the data, not from the text of the source: actives have a measured IC50 and inactives only a lower limit.

In this assay the target is Envelope glycoprotein gp160 (Human immunodeficiency virus 1, UniProt Q6QLK5). The assay is described as follows: inhibitors of HIV fusion peptide binding, primary screen, biochemical, uHTS, fluorescence dequenching (AID 1986).
Sequence of Envelope glycoprotein gp160 (Q6QLK5 whole entry, the tested form may be a part): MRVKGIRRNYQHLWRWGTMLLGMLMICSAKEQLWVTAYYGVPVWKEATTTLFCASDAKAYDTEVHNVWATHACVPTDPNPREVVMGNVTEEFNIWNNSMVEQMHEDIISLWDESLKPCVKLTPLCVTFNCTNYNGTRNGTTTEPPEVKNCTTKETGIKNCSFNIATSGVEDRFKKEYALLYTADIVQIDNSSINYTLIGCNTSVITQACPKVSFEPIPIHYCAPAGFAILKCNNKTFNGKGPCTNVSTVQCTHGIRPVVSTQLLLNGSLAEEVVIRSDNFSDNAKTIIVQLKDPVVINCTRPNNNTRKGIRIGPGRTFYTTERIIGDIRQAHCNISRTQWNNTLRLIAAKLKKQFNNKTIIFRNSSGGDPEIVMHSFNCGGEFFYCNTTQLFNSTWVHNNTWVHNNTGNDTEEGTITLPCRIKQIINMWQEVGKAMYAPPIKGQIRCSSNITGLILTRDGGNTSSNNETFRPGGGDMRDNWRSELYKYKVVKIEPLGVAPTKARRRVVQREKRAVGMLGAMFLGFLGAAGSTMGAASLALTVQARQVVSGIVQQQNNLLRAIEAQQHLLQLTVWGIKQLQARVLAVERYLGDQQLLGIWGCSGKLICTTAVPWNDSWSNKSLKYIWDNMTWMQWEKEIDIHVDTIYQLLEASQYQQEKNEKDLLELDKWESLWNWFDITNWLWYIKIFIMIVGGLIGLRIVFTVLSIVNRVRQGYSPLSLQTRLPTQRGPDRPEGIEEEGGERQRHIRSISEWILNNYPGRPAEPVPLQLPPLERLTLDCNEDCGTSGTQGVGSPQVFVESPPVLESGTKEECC

Usually IC50 stands for the concentration needed to halve the response being measured. In the case of `Cc1nn(CCc2nn[nH]n2)c2nc(-c3ccc(C4CCCCC4)cc3)cc(C(F)(F)F)c12`, the 50% inhibitory concentration (IC50) is 12.4 µM (active).
The figure for `O=C(O)c1[nH]c2ccccc2c1C(c1c(F)cccc1Cl)c1c(C(=O)O)[nH]c2ccccc12` is 13.4 µM (active).
